From patent US20230235301A1, “Compounds and Methods for Treating, Ameliorating, or Preventing Herpes Ocular Keratitis” (THE TRUSTEES OF THE UNIVERSITY OF PENNSYLVANIA, priority 2020, published 2023) come the findings set out here.

The subject of test [1] is HSV-1. Kind of test: microbe, parasite or virus in culture. The format is cell-based. Here is the method: Cells with ~90% confluence in 48-well plates were infected by absorbing virus (~100 PFU/well) for 1 h in 100 µL growth medium followed by adding 200 µL culture medium containing DMSO vehicle or serially diluted peptides or Acyclovir (Tocris Bioscience-Fisher Scientific) to each well of the plate. DMSO was maintained at 1% throughout the treatment. Cells were subsequently fixed and stained with 300 µL PBS containing 4% formaldehyde and 0.2% crystal violet overnight at room temperature. HSV-1 plaques were quantified at ~55 h post-infection of Vero cells. VV (WR strain) infection of BSC-1 cells was analyzed for plaque formation after 24 h. The plaque reduction assays were performed in duplicate and independently repeated twice. Cells were stained, and plaques counted under a dissecting microscope. Data were plotted on the GraphPad Prism.
Standard viral plaque reduction assays were conducted in Vero cells to determine if any of the five stapled peptides (S-pep1/3/4/7/8) that were able to block processive DNA synthesis, could also block HSV-1 infection. To minimize possible interference of HSV-1 cell attachment and entry by the peptides, cells were first infected by absorbing the virus for 1 h, followed by treatment with peptides at serial dilutions. […] The EC50 values of both S-pep3 and S-pep8 were approximately 100 µM (FIG. 15C and FIG. 15F). Additionally, S-pep4 was toxic at 12.5 µM, which precluded further optimization.

Test [2] has as its target HSV-1 UL30 DNA Polymerase and UL42 Processivity Factor (Human herpesvirus 1, UniProt P10226). Kind of test: In vitro processive DNA synthesis assay (ELISA-based Rapid Plate Assay). The test is classed as biochemical. As to conditions: for IC50, µM* (HSV1 UL30+UL42): inhibition of HSV-1 processive DNA synthesis in vitro by UL30 and UL42. As to the method:
The assay was performed by the enzyme-linked immunosorbent assay (ELISA)-based Rapid Plate Assay (J. Virol. Methods 2000, 88:219-225; Methods Mol. Biol. 2005, 292:481-492; J. Med. Chem. 2008, 51:6563-6570), using in vitro translated viral DNA polymerase and processivity factor.
Briefly, the assay comprised a 100-nucleotide single-stranded DNA template that has biotin covalently linked to the 5′ end. The biotin-labeled oligonucleotide template was immobilized onto streptavidin, which was coated onto each well of a micro-titer plate. An oligonucleotide primer (15mer) was annealed to the 3′ end of the biotin-labeled DNA template. HSV-1 UL-30 and HSV-1 UL-42 (either in vitro translated or purified) were added and incubated with serial dilutions of the stapled peptides. DNA synthesis was measured by direct incorporation of the 4 dNTPs as well as the signal nucleotide, digoxigenin-dUTP (1:5, dig-dUTP:dTTP). A peroxidase-conjugated anti-digoxigenin antibody that recognizes the newly synthesized DNA generated a colorimetric reaction that was quantified with a plate reader at 405 nm.
In certain non-limiting embodiments, the shown staples (or tethers), which provide rigidity, had linked-spacing of one full turn (i,i+4) or two full turns (i,i+7) of the helix to stay in helical register (3.6 amino acids/turn). In other embodiments, the staple was on the solvation side of the helix. Residues on the opposite side contact the PF target protein UL42. These UL42 residues are D63, R64 and K289 (FIGS. 13A-13C). Hydrogen bonds between residues of UL42 and C-Pol are shown as dotted lines. The IC50 values recited herein were quantitated using the assay described in U.S. Pat. No. 6,204,028, which is incorporated herein in its entirety by reference (FIG. 14).
For orientation: In an ELISA, binding on a coated surface is turned into a signal by an enzyme label.

The target of test [3] is T1, HSV-1 Processivity Factor (UL42) (HSV-1 (strain KOS), UniProt P10226 1-488).
T1 sequence: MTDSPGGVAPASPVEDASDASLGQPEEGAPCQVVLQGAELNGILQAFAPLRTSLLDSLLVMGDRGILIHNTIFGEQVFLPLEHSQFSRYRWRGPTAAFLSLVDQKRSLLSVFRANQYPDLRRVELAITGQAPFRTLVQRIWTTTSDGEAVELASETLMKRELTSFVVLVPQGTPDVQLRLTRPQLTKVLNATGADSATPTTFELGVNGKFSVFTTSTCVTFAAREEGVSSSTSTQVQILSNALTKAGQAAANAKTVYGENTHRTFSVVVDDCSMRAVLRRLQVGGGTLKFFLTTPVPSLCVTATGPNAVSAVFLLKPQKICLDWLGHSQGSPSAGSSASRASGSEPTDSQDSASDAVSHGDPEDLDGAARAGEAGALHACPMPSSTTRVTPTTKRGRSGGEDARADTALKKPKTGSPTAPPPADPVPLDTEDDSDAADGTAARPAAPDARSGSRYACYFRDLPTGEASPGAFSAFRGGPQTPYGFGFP
Kind of test: cell-based or functional assay.

Read-outs that look alike come from different tables or passages of the source. Positions of bridges follow the written chain, without caps; N, C: chain ends. Non-standard residues stand in square brackets, D forms with d. Residues, ends and D or L forms follow the SMILES beside them. No end group written: not given here. S5 = C=CCCC[C@](C)(N)C(=O)O Bounds are passed on as bounds.

One may read the EC50 as the midpoint of the concentration-response curve. One may read the IC50 as the concentration at which inhibition is half-maximal. Read a low IC50 as higher potency. In test [1] (1 h), `CSCC[C@H](NC(=O)[C@H](CCCNC(=N)N)NC(=O)[C@H](CCCNC(=N)N)NC(=O)[C@@H](NC(=O)[C@H](CCC(=O)O)NC(C)=O)[C@@H](C)O)C(=O)N[C@@H](CC(C)C)C(=O)N[C@@H](Cc1c[nH]cn1)C(=O)N[C@@H](CCCNC(=N)N)C(=O)N[C@@H](C)C(=O)N[C@@H](Cc1ccccc1)C(=O)N[C@@H](CC(=O)O)C(=O)N[C@H](C(=O)N[C@@H](CC(C)C)C(=O)N[C@@H](C)C(=O)O)[C@@H](C)O` [N-pep, Ac-ETRRMLHRAFDTLA, reference compound] registered an EC50 of more than 200 µM. Moreover, the IC50 in test [2] was more than 200 µM. For the same molecule, the “IC50, µM* (HSV1 UL30+UL42)” value in test [2] (listed as Non-stapled) is “no inhibition”; in test [2] (listed as native (unstapled) C-Pol peptide) it was “fails to inhibit”.
Take `CSCC[C@H](NC(=O)[C@H](CCCNC(=N)N)NC(=O)[C@H](CCCNC(=N)N)NC(=O)[C@@H](NC(=O)[C@H](CCC(=O)O)NC(C)=O)[C@@H](C)O)C(=O)N[C@@H](CC(C)C)C(=O)N[C@@H](Cc1c[nH]cn1)C(=O)N[C@@]1(C)CCCC=CCCC[C@@](C)(C(=O)N[C@@H](CC(C)C)C(=O)N[C@@H](C)C(=O)O)NC(=O)[C@H](CC(=O)O)NC(=O)[C@H](Cc2ccccc2)NC(=O)[C@H](C)NC1=O` [S-pep8, Ac-ETRRMLHXAFDXLA] (Ac-ETRRMLH[S5]AFD[S5]LA-OH; staple 8-12; C-terminus assumed): the EC50 in test [1] (1 h) is approximately 100 µM.
The molecule `CC(=O)N[C@@]1(C)CCCC=CCCC[C@@](C)(C(=O)N[C@@H](CC(C)C)C(=O)N[C@@H](Cc2c[nH]cn2)C(=O)N[C@@H](CCCNC(=N)N)C(=O)N[C@@H](C)C(=O)N[C@@H](Cc2ccccc2)C(N)=O)NC(=O)[C@H](CCCNC(=N)N)NC(=O)[C@H](CCCNC(=N)N)NC(=O)[C@H]([C@@H](C)O)NC1=O` [S-pep2, Ac-XTRRXLBRAF-NH2] (Ac-[S5]TRR[S5]LHRAF-NH2; staple 1-5) registered an IC50 in test [2] of more than 200 µM.
As for `CSCC[C@@H]1NC(=O)[C@H](CCCNC(=N)N)NC(=O)[C@H](CCCNC(=N)N)NC(=O)[C@@](C)(NC(C)=O)CCCC=CCCC[C@@](C)(C(=O)N[C@@H](Cc2c[nH]cn2)C(=O)N[C@@H](CCCNC(=N)N)C(=O)N[C@@H](C)C(=O)N[C@@H](Cc2ccccc2)C(=O)N[C@@H](CC(=O)O)C(=O)N[C@H](C(=O)N[C@@H](CC(C)C)C(=O)N[C@@H](C)C(=O)O)[C@@H](C)O)NC1=O` [S-pep5, Ac-XRRMXHRAFDTLA] (Ac-[S5]RRM[S5]HRAFDTLA-OH; staple 1-5), in test [2], the IC50 is more than 200 µM and the “IC50, µM* (HSV1 UL30+UL42)” value was “failed to inhibit”.
As to `CC(=O)N[C@@H](CCC(=O)O)C(=O)N[C@H](C(=O)N[C@@H](CCCNC(=N)N)C(=O)N[C@@H](CCCNC(=N)N)C(=O)N[C@@]1(C)CCCC=CCCC[C@@](C)(C(=O)N[C@@H](Cc2ccccc2)C(=O)N[C@@H](CC(=O)O)C(=O)N[C@H](C(=O)N[C@@H](CC(C)C)C(=O)N[C@@H](C)C(=O)O)[C@@H](C)O)NC(=O)[C@H](CCCNC(=N)N)NC(=O)[C@H](Cc2c[nH]cn2)NC(=O)[C@H](CC(C)C)NC1=O)[C@@H](C)O` [S-pep7, Ac-ETRRXLHRXFDTLA] (Ac-ETRR[S5]LHR[S5]FDTLA-OH; staple 5-9; C-terminus assumed), the midpoint of the response in test [1] (1 h), the EC50, lay at 35.5 µM.
In turn, `CC(=O)N[C@@H](C)C(=O)N[C@@H](CCC(=O)O)C(=O)N[C@@]1(C)CCCC=CCCC[C@@](C)(C(=O)N[C@@H](CC(C)C)C(=O)N[C@@H](Cc2c[nH]cn2)C(=O)N[C@@H](CCCNC(=N)N)C(=O)N[C@@H](C)C(=O)N[C@@H](Cc2ccccc2)C(=O)N[C@@H](CC(=O)O)C(=O)N[C@H](C(=O)N[C@@H](CC(C)C)C(=O)N[C@@H](C)C(=O)O)[C@@H](C)O)NC(=O)[C@H](CCCNC(=N)N)NC(=O)[C@H](CCCNC(=N)N)NC(=O)[C@H]([C@@H](C)O)NC1=O` [S-pep3, Ac-AEXTRRXLHRAFDTLA] (Ac-AE[S5]TRR[S5]LHRAFDTLA-OH; staple 3-7; C-terminus assumed) came in with an EC50 in test [1] (1 h) of approximately 100 µM.
With `Nc1nc2c(ncn2COCCO)c(=O)[nH]1` [Acyclovir, reference compound], in test [1] (Human alphaherpesvirus 1, Vero cells, peptides added after 1 h virus absorption, plaques counted at ~55 h, read-out: EC50, inhibition of HSV-1 plaque formation), the EC50 amounted to 0.81 µM.
Regarding `CC(=O)N[C@@]1(C)CCCC=CCCC[C@@](C)(C(=O)N[C@@H](CC(C)C)C(=O)N[C@@H](Cc2c[nH]cn2)C(=O)N[C@@H](CCCNC(=N)N)C(=O)N[C@@H](C)C(=O)N[C@@H](Cc2ccccc2)C(=O)N[C@@H](CC(=O)O)C(=O)N[C@H](C(=O)N[C@@H](CC(C)C)C(=O)N[C@@H](C)C(=O)O)[C@@H](C)O)NC(=O)[C@H](CCCNC(=N)N)NC(=O)[C@H](CCCNC(=N)N)NC(=O)[C@H]([C@@H](C)O)NC1=O` [S-pep1, Ac-XTRRXLHRAFDTLA] (Ac-[S5]TRR[S5]LHRAFDTLA-OH; staple 1-5; C-terminus assumed), the EC50 in test [1] (1 h) came out at 43 µM. Further, the “IC50, µM* (HSV1 UL30+UL42)” value in test [2] is “successfully inhibits”.
Consider Ac-VVTRR[S5]LHR[S5]FDTLA (staple 6-10) [S-pep7B], for which, in test [3], the “IC50, µM (HSV1 UL30+UL42); HSV-1 DNA synthesis inhibition” value (“IC50 … HSV-1 DNA synthesis inhibition” for short) is 1 µM.
The same measure, in the same setting: next, Ac-RRTRR[S5]LHR[S5]FDTLA (staple 6-10) [S-pep7D]: 2 µM; Ac-VTRR[S5]LHR[S5]FDTLA (staple 5-9) [S-pep7A]: 1.7 µM.
Ac-[S5]TRR[S5]LHRAFDTLA (staple 1-5) [S-pep1]: the “IC50 … HSV-1 DNA synthesis inhibition” value in test [3] is 12 µM.
For Ac-AE[S5]TRR[S5]LHRAFDTLA (staple 3-7) [S-pep3], the “IC50 … HSV-1 DNA synthesis inhibition” value in test [3] is 12.7 µM.
Still for that read-out and setting: next, Ac-[S5]TRR[S5]LHRAF-NH2 (staple 1-5) [S-pep2]: more than 200 µM.
The same measure, in the same setting: to Ac-ETRRMLH[S5]AFD[S5]LA (staple 8-12) [S-pep8] belongs 20.7 µM; to Ac-ETRR[S5]LHR[S5]FDTLA (staple 5-9) [S-pep7], 5.5 µM.
Ac-[S5]RRM[S5]HRAFDTLA (staple 1-5) [S-pep5]: in test [3], the “IC50 … HSV-1 DNA synthesis inhibition” value was more than 200 µM.
Same read-out and setting: next, Ac-RTRR[S5]LHR[S5]FDTLA (staple 5-9) [S-pep7C]: 1.7 µM.
